Assay results: ChEMBL document CHEMBL1158553, “Synthesis and biological activity of cyclotetrapeptide analogues of the natural HDAC inhibitor FR235222” (Bioorg Med Chem, 2010)

Experiments:
[1] = biological target: Histone deacetylase (Homo sapiens) (UniProt Q13547+O15379+Q9UBN7+Q92769+Q9UQL6+Q8WUI4+Q9BY41+Q96DB2+P56524+Q9UKV0+Q969S8); settings: HeLa, 100 uM
[2] = biological target: Histone deacetylase 2 (Homo sapiens) (UniProt Q92769); settings: HEK293; 100 uM
[3] = biological target: Histone deacetylase 3 (Homo sapiens) (UniProt O15379); settings: HEK293; 100 uM
[4] = biological target: T1, Histone deacetylase 7 (Homo sapiens) (UniProt Q8WUI4); settings: 100 uM
T1 sequence (whole entry): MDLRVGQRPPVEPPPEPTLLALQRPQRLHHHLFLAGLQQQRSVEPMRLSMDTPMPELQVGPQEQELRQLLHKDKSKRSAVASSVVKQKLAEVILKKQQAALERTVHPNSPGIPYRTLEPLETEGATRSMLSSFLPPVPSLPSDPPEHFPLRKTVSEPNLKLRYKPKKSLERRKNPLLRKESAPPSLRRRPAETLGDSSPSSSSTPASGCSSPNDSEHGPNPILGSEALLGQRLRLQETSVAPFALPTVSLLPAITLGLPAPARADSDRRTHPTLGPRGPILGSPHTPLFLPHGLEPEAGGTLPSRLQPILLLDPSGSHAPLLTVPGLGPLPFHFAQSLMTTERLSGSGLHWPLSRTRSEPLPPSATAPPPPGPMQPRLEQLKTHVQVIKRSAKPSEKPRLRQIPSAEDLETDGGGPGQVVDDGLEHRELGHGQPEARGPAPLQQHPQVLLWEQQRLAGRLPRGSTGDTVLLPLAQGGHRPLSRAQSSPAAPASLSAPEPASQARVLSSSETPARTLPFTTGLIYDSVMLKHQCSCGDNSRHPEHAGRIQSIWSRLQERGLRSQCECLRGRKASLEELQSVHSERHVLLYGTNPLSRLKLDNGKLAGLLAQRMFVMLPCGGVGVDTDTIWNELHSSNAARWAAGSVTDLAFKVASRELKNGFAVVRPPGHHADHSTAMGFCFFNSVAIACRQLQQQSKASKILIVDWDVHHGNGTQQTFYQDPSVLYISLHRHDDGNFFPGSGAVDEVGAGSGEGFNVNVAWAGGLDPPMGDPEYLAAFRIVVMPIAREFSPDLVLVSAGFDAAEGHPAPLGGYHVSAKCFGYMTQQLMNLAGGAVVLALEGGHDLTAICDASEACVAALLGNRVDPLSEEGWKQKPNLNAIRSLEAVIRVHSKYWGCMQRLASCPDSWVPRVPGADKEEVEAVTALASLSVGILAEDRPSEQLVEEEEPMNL

[5] = biological target: Histone deacetylase 4 (Homo sapiens) (UniProt P56524); settings: 50 uM
[6] = biological target: Histone deacetylase 4 (Homo sapiens) (UniProt P56524); settings: 100 uM
[7] = biological target: Histone deacetylase 1 (Homo sapiens) (UniProt Q13547); settings: HEK293; 50 uM
[8] = biological target: Histone deacetylase 2 (Homo sapiens) (UniProt Q92769); settings: HEK293; 50 uM
[9] = biological target: Histone deacetylase 3 (Homo sapiens) (UniProt O15379); settings: HEK293; 50 uM

Sequence of Histone deacetylase 4 (Homo sapiens) (P56524 whole entry): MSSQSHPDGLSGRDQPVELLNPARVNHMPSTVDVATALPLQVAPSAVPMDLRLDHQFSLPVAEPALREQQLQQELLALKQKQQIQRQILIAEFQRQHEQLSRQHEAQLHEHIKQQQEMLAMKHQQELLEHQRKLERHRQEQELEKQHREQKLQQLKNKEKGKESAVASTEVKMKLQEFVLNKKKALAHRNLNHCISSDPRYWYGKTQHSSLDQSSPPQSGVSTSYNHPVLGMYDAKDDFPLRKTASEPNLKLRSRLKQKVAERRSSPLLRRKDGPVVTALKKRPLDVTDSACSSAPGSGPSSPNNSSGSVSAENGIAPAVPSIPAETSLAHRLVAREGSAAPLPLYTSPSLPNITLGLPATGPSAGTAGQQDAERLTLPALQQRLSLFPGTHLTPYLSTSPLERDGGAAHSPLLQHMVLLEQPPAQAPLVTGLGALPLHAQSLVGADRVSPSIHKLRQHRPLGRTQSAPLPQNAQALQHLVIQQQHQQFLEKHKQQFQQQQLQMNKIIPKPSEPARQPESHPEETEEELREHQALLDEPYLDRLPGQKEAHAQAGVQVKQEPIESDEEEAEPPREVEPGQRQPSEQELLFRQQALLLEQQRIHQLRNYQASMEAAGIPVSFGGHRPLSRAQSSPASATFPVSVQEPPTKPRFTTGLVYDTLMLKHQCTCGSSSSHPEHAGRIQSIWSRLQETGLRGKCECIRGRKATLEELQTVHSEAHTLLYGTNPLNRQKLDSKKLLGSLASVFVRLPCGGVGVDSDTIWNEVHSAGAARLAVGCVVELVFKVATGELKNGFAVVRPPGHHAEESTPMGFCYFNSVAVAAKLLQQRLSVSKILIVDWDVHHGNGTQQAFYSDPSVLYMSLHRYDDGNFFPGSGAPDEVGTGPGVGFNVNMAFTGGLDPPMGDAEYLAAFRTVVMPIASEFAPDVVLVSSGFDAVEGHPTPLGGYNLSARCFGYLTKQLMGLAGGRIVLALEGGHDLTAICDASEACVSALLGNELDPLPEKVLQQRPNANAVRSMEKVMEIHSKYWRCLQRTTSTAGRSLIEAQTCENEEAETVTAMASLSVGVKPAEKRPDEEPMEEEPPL
Sequence of Histone deacetylase 3 (Homo sapiens) (O15379 whole entry): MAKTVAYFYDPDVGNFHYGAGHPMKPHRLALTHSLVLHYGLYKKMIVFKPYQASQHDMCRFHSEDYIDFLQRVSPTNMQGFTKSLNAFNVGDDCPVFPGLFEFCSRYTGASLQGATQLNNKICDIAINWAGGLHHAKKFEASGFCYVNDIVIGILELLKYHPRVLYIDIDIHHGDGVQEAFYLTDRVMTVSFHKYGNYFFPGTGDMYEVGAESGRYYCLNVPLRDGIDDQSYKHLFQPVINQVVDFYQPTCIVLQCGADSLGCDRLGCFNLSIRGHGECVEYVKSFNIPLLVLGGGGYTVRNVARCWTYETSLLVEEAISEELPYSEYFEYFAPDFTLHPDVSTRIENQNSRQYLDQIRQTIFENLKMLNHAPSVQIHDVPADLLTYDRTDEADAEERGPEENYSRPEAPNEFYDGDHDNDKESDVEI
Sequence of Histone deacetylase 2 (Homo sapiens) (Q92769 whole entry): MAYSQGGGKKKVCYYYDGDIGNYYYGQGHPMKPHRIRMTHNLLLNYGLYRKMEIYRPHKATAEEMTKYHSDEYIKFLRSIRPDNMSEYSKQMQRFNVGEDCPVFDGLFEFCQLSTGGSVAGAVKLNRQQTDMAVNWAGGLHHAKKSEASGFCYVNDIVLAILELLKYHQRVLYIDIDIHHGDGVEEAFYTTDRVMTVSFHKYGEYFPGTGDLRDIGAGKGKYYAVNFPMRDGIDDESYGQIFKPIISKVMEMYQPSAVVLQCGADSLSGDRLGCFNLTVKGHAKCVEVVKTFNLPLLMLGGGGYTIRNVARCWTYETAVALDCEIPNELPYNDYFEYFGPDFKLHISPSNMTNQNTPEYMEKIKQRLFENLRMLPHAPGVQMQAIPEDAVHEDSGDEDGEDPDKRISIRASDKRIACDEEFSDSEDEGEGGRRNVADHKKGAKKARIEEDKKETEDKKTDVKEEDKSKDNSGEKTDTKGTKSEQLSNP
Sequence of Histone deacetylase 1 (Homo sapiens) (Q13547 whole entry): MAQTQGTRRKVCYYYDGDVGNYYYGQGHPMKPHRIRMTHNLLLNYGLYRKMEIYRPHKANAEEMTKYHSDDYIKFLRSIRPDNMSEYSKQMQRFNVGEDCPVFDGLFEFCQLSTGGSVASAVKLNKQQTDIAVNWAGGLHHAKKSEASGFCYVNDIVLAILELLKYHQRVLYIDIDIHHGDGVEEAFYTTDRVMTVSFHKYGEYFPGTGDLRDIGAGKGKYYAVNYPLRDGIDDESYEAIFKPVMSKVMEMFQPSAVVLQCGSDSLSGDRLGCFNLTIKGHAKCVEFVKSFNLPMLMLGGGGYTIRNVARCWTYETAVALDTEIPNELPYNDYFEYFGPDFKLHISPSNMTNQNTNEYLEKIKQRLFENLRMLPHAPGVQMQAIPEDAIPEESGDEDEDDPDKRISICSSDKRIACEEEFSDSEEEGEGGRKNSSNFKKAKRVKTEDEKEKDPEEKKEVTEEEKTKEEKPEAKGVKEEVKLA

Question: How did the inhibition [1] turn out when `O=C(O)CC/C=C\C[C@@H]1NC(=O)[C@H](Cc2c[nH]c3ccccc23)NC(=O)[C@H]2CCCN2C(=O)[C@H](Cc2c[nH]c3ccccc23)NC1=O` was run?
Answer: Its inhibition is 30%.

Question: Which inhibition [2] does the source give for `O=C(CCCCC[C@@H]1NC(=O)[C@H](Cc2c[nH]c3ccccc23)NC(=O)[C@H]2CCCN2C(=O)[C@H](Cc2c[nH]c3ccccc23)NC1=O)NO` here?
Answer: Its inhibition is 34%.

Question: What about the inhibition [3] of the same compound?
Answer: The inhibition was 23.5%.

Question: And the inhibition [4]?
Answer: The inhibition was 48.5%.

Question: How did the inhibition [5] turn out when `O=C(O)CC/C=C\C[C@@H]1NC(=O)[C@H]2CCCN2C(=O)[C@H](Cc2ccccc2)NC(=O)[C@H](Cc2c[nH]c3ccccc23)NC1=O` was run?
Answer: The inhibition was 37%.

Question: For `C[C@H](O)C(=O)CCCCC[C@@H]1NC(=O)[C@H]2CCCN2C(=O)[C@H](Cc2ccccc2)NC(=O)[C@H](Cc2c[nH]c3ccccc23)NC1=O`, which inhibition [6] is on record?
Answer: The inhibition was 50%.

Question: What does the source list for `O=C(CCCCC[C@@H]1NC(=O)[C@H]2CCCN2C(=O)[C@H](Cc2ccccc2)NC(=O)[C@H](Cc2c[nH]c3ccccc23)NC1=O)NO`?
Answer: inhibition [7]: 42%; inhibition [8]: 30%; inhibition [9]: 14.7%
